Data from publication PMC11882969 (Nature Communications, 2025).
Several values for one entry are separate records, joined by “and”; a condition that tells them apart may be missing. Equal values may be shown once.

Key:
Type in all cases: cell-based
[1] = biological target: panel of 320 non-olfactory GPCRs (Homo sapiens, UniProt P32249)
[2] = biological target: panel of 320 non-olfactory GPCRs (Homo sapiens, UniProt O95838)
[3] = biological target: panel of 320 non-olfactory GPCRs (Homo sapiens, UniProt P23945)
[4] = biological target: panel of 320 non-olfactory GPCRs (Homo sapiens, UniProt Q9Y5Y3)
[5] = biological target: panel of 320 non-olfactory GPCRs (Homo sapiens, UniProt Q14439)
[6] = biological target: panel of 320 non-olfactory GPCRs (Homo sapiens, UniProt O43193)
Chain of panel of 320 non-olfactory GPCRs (Homo sapiens, UniProt O43193) (O43193 whole entry): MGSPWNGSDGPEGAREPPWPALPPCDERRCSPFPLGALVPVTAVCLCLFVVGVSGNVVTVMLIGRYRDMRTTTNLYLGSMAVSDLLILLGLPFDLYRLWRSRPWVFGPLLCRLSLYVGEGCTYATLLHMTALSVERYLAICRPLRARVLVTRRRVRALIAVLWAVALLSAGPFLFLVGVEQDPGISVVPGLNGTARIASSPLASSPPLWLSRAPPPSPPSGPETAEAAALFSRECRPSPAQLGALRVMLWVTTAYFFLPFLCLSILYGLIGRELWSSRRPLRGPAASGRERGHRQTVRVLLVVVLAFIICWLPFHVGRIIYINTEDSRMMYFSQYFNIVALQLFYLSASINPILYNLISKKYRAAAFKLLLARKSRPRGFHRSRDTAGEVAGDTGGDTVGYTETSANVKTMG

[7] = biological target: panel of 320 non-olfactory GPCRs (Homo sapiens, UniProt P25103)
Chain of panel of 320 non-olfactory GPCRs (Homo sapiens, UniProt P25103) (P25103 whole entry): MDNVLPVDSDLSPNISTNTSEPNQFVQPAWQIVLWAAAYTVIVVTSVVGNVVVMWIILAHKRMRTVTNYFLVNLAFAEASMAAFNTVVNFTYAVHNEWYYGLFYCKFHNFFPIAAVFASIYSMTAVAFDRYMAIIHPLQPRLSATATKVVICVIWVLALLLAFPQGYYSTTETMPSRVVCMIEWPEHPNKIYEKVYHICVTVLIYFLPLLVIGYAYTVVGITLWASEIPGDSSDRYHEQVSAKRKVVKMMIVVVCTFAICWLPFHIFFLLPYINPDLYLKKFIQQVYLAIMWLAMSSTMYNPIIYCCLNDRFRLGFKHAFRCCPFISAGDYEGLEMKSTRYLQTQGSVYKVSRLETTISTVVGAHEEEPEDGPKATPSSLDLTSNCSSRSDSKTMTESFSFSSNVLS

[8] = biological target: panel of 320 non-olfactory GPCRs (Homo sapiens, UniProt P28566)
Chain of panel of 320 non-olfactory GPCRs (Homo sapiens, UniProt P28566) (P28566 whole entry): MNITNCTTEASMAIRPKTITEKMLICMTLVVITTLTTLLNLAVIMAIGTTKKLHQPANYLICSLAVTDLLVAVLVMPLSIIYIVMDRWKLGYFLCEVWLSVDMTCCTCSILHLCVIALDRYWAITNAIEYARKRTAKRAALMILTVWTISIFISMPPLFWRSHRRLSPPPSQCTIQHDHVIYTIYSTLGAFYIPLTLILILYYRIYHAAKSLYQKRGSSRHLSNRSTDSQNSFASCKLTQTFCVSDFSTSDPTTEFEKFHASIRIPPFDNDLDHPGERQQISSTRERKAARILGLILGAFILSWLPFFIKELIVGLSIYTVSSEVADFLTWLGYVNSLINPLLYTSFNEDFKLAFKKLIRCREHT

[9] = biological target: panel of 320 non-olfactory GPCRs (Homo sapiens, UniProt O95800)
[10] = biological target: panel of 320 non-olfactory GPCRs (Homo sapiens, UniProt P21453)
[11] = biological target: panel of 320 non-olfactory GPCRs (Homo sapiens, UniProt Q9P296)
Chain of panel of 320 non-olfactory GPCRs (Homo sapiens, UniProt Q9P296) (Q9P296 whole entry): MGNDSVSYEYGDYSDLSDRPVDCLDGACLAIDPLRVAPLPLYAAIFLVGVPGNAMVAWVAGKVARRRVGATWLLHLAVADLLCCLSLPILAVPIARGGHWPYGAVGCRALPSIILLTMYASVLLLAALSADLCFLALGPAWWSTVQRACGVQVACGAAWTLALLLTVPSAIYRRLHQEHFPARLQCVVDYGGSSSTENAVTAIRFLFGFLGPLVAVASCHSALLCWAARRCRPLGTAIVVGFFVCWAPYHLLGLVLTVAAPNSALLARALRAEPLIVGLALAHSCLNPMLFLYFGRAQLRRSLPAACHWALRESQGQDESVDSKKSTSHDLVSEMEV

[12] = biological target: panel of 320 non-olfactory GPCRs (Homo sapiens, UniProt P51810)
Chain of panel of 320 non-olfactory GPCRs (Homo sapiens, UniProt P51810) (P51810 whole entry): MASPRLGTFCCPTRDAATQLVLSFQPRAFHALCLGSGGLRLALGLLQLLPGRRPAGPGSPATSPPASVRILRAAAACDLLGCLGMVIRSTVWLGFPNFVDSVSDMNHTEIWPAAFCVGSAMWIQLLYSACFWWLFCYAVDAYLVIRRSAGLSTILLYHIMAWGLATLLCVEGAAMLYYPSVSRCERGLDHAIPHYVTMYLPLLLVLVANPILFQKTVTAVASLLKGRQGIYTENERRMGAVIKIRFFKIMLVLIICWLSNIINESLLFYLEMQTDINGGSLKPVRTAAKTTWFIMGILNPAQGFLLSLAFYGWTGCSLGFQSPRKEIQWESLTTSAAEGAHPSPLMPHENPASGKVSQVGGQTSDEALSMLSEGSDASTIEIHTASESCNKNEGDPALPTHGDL

[13] = biological target: panel of 320 non-olfactory GPCRs (Homo sapiens, UniProt P35410)
[14] = biological target: panel of 320 non-olfactory GPCRs (Homo sapiens, UniProt P35346)
Chain of panel of 320 non-olfactory GPCRs (Homo sapiens, UniProt P35346) (P35346 whole entry): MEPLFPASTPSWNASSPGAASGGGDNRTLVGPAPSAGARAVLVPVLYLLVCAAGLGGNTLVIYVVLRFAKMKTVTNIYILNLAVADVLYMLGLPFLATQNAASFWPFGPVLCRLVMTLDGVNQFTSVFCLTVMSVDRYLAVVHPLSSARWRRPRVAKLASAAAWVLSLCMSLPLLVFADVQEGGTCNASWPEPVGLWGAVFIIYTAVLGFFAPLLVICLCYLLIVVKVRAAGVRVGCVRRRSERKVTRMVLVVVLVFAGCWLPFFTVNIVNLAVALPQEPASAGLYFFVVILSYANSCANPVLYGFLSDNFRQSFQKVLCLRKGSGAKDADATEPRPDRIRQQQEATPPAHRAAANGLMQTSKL

[15] = biological target: panel of 320 non-olfactory GPCRs (Homo sapiens, UniProt Q9Y653)
[16] = biological target: panel of 320 non-olfactory GPCRs (Homo sapiens, UniProt Q9BPV8)
[17] = biological target: panel of 320 non-olfactory GPCRs (Homo sapiens, UniProt P37288)
Chain of panel of 320 non-olfactory GPCRs (Homo sapiens, UniProt P37288) (P37288 whole entry): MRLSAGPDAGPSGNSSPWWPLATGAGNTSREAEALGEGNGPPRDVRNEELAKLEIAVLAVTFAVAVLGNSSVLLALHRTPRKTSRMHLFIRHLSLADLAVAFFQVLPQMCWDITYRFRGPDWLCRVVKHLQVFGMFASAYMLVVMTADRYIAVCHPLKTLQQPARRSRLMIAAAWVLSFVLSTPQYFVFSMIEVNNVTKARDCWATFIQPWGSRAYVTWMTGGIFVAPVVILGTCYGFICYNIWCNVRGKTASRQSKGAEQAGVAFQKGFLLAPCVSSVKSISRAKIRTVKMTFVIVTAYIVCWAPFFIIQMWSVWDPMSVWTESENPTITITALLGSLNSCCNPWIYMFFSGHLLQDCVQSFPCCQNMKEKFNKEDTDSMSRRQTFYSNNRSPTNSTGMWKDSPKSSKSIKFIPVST

[18] = biological target: panel of 320 non-olfactory GPCRs (Homo sapiens, UniProt Q99679)
[19] = biological target: panel of 320 non-olfactory GPCRs (Homo sapiens, UniProt P08912)
[20] = biological target: panel of 320 non-olfactory GPCRs (Homo sapiens, UniProt Q6NV75)
[21] = biological target: panel of 320 non-olfactory GPCRs (Homo sapiens, UniProt Q5T6X5)
[22] = biological target: panel of 320 non-olfactory GPCRs (Homo sapiens, UniProt P28221)
[23] = biological target: panel of 320 non-olfactory GPCRs (Homo sapiens, UniProt Q96RI8)
[24] = biological target: panel of 320 non-olfactory GPCRs (Homo sapiens, UniProt P30550)
Chain of panel of 320 non-olfactory GPCRs (Homo sapiens, UniProt P30550) (P30550 whole entry): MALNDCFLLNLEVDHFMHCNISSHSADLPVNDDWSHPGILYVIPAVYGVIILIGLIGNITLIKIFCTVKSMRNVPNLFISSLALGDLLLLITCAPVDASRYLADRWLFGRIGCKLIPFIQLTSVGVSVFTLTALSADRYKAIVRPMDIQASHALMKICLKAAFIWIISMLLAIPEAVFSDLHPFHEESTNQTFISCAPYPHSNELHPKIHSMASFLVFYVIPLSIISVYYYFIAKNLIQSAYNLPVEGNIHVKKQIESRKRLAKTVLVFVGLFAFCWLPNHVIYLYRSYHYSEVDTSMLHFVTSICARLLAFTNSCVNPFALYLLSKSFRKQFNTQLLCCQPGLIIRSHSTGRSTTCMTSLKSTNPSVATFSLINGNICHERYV

[25] = biological target: panel of 320 non-olfactory GPCRs (Homo sapiens, UniProt Q13258)
[26] = biological target: panel of 320 non-olfactory GPCRs (Homo sapiens, UniProt P31391)
Chain of panel of 320 non-olfactory GPCRs (Homo sapiens, UniProt P31391) (P31391 whole entry): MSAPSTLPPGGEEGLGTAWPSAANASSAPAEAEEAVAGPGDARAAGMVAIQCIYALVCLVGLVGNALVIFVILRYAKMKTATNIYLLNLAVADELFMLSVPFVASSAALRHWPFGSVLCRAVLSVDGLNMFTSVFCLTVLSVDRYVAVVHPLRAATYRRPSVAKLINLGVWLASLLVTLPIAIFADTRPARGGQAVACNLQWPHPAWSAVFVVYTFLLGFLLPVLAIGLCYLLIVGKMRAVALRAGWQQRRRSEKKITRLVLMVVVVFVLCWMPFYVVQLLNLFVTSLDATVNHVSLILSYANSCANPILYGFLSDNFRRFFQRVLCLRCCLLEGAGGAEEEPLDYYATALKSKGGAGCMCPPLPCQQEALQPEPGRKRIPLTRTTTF

[27] = biological target: panel of 320 non-olfactory GPCRs (Homo sapiens, UniProt Q8NDV2)
[28] = biological target: panel of 320 non-olfactory GPCRs (Homo sapiens, UniProt Q8NFJ6)
[29] = biological target: panel of 320 non-olfactory GPCRs (Homo sapiens, UniProt Q15761)
Chain of panel of 320 non-olfactory GPCRs (Homo sapiens, UniProt Q15761) (Q15761 whole entry): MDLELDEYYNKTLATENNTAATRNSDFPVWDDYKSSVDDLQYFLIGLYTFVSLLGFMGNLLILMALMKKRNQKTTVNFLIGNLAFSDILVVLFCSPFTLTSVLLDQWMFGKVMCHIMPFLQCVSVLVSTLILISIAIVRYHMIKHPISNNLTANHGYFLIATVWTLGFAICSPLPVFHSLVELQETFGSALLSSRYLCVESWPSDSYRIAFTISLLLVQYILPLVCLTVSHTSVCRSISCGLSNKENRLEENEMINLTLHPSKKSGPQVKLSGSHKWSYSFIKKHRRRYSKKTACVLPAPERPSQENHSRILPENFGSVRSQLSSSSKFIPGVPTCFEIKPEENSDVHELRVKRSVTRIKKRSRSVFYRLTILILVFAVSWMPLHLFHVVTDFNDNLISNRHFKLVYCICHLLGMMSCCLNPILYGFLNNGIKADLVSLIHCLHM

[30] = biological target: panel of 320 non-olfactory GPCRs (Homo sapiens, UniProt Q9Y5X5)
[31] = biological target: panel of 320 non-olfactory GPCRs (Homo sapiens, UniProt O00254)
Chain of panel of 320 non-olfactory GPCRs (Homo sapiens, UniProt O00254) (O00254 22-374): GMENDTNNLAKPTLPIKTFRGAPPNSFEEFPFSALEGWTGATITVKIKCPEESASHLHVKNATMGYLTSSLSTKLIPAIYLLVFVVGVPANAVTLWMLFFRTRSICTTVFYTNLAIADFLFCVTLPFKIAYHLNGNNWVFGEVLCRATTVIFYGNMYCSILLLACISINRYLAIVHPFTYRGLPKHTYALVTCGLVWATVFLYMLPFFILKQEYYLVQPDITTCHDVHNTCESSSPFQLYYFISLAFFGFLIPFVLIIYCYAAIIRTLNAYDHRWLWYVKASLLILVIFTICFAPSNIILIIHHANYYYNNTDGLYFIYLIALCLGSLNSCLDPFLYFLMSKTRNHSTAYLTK

[32] = biological target: panel of 320 non-olfactory GPCRs (Homo sapiens, UniProt P32245)
[33] = biological target: panel of 320 non-olfactory GPCRs (Homo sapiens, UniProt P43657)
[34] = biological target: panel of 320 non-olfactory GPCRs (Homo sapiens, UniProt P35414)
[35] = biological target: panel of 320 non-olfactory GPCRs (Homo sapiens, UniProt Q7Z7M1)
[36] = biological target: panel of 320 non-olfactory GPCRs (Homo sapiens, UniProt Q99677)
Chain of panel of 320 non-olfactory GPCRs (Homo sapiens, UniProt Q99677) (Q99677 whole entry): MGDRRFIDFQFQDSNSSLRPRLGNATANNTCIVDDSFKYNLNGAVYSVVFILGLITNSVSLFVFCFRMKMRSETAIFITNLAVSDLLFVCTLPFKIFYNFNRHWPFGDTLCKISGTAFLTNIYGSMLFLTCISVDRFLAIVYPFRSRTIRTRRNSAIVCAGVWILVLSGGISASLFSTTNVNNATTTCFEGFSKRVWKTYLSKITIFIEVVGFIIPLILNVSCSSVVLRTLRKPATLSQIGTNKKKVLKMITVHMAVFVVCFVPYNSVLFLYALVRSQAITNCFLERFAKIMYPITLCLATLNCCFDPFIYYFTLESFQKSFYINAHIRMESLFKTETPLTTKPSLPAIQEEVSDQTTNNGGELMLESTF

[37] = biological target: panel of 320 non-olfactory GPCRs (Homo sapiens, UniProt Q8TDS4)
Also: test concentration or dose not given here.

SMILES | Fold of Basal RLU [1] | Fold of Basal RLU [2] | Fold of Basal RLU [3] | Fold of Basal RLU [4] | Fold of Basal RLU [5] | Fold of Basal RLU [6] | Fold of Basal RLU [7] | Fold of Basal RLU [8] | Fold of Basal RLU [9] | Fold of Basal RLU [10] | Fold of Basal RLU [11] | Fold of Basal RLU [12] | Fold of Basal RLU [13] | Fold of Basal RLU [14] | Fold of Basal RLU [15] | Fold of Basal RLU [16] | Fold of Basal RLU [17] | Fold of Basal RLU [18] | Fold of Basal RLU [19] | Fold of Basal RLU [20] | also measured
COC(=O)[C@@](C)(NC(=O)c1cc(C)n(-c2cccc(C(F)(F)F)c2)n1)c1cccs1 [‘1350] | 0.8 and 0.9 and 1 | 1.1 fold and 1.5 fold and 1 fold and 0.8 fold | 1 fold and 1.2 fold and 0.7 fold and 0.8 fold | 0.8 and 1.2 and 1.3 and 1 | 0.7 and 0.8 and 1 and 0.9 | 0.7 and 0.6 | 1.1 and 1.2 and 1.7 | 1.3 fold and 1.5 fold and 1.2 fold | 1.1 fold and 1 fold and 1.2 fold and 2 fold | 0.9 fold and 1 fold and 0.8 fold and 0.7 fold | 0.9 fold and 0.8 fold and 1.3 fold and 1.5 fold | 1.2 and 0.9 and 0.8 and 1 | 1.9 and 1.3 and 1 and 1.2 | 0.4 and 0.7 and 0.6 and 0.5 | 1.4 fold and 1.2 fold and 1.5 fold | 1 fold and 1.1 fold and 1.4 fold and 1.6 fold | 0.7 and 1 and 0.9 | 1 and 0.8 and 1.3 | 0.9 fold and 1.4 fold and 1.1 fold and 1.7 fold | 0.8 fold and 0.7 fold and 1 fold and 0.9 fold | Fold of Basal RLU [21]: 0.7 fold and 0.9 fold and 1.1 fold; Fold of Basal RLU [22]: 1.1 fold and 0.9 fold and 1.2 fold; Fold of Basal RLU [23]: 0.9 fold and 1.2 fold and 1.1 fold and 0.8 fold; Fold of Basal RLU [24]: 0.8 fold and 1.2 fold; Fold of Basal RLU [25]: 0.9 and 0.6 and 0.8; Fold of Basal RLU [26]: 2.3 and 2 and 1.6; Fold of Basal RLU [27]: 1.6 fold and 1.8 fold and 1.3 fold; Fold of Basal RLU [28]: 0.9 and 0.7 and 0.8 and 1.1; Fold of Basal RLU [29]: 1.2 fold and 1 fold; Fold of Basal RLU [30]: 0.3; Fold of Basal RLU [31]: 0.9 fold and 1.1 fold; Fold of Basal RLU [32]: 1 fold and 1.4 fold and 0.8 fold; Fold of Basal RLU [33]: 0.9 fold and 1 fold and 1.1 fold and 0.7 fold; Fold of Basal RLU [34]: 0.9 fold and 1.1 fold and 1.2 fold and 1 fold; Fold of Basal RLU [35]: 1.1 and 0.9 and 1.3 and 0.7; Fold of Basal RLU [36]: 1.3 and 1.1 and 1 and 0.9; Fold of Basal RLU [37]: 1 fold and 0.8 fold
Cc1cc(C(=O)NC(C)(c2ccco2)c2ccco2)nn1-c1cccc(C(F)(F)F)c1 [‘4936] | 0.9 and 1 | 1 fold and 0.8 fold and 0.9 fold | 1 fold and 0.7 fold and 0.8 fold and 1.1 fold | 1.6 and 1.2 and 1.5 | 0.8 and 0.9 and 1 | 2 and 1.6 and 1.3 and 1.1 | 1.3 and 1.8 and 1.7 and 2 | 1.4 fold and 1.3 fold and 1.5 fold and 2 fold | 1.7 fold and 1.4 fold and 1.6 fold | 1.2 fold and 0.7 fold and 1.1 fold | 0.9 fold and 1 fold and 1.1 fold | 1 and 0.7 and 1.1 | 0.8 and 0.4 and 0.6 | 1 and 0.7 and 0.8 | 2.1 fold and 1.6 fold and 1.2 fold and 1.1 fold | 1.3 fold and 1.5 fold and 1.7 fold and 1.8 fold | 0.9 and 0.7 and 1.1 and 1 | 2.5 and 1.9 and 1.6 and 2.2 | 1 fold and 1.1 fold and 0.9 fold and 0.8 fold | 1.7 fold and 1.2 fold and 1.4 fold and 2.1 fold | Fold of Basal RLU [21]: 0.9 fold and 1.1 fold and 0.6 fold and 1 fold; Fold of Basal RLU [22]: 1.2 fold and 1.1 fold; Fold of Basal RLU [23]: 0.8 fold and 1.3 fold and 0.7 fold; Fold of Basal RLU [24]: 0.8 fold and 0.6 fold; Fold of Basal RLU [25]: 1.5 and 1.4 and 1.6 and 2.3; Fold of Basal RLU [26]: 1.9 and 1.7 and 2.4 and 1.5; Fold of Basal RLU [27]: 2 fold and 1.4 fold and 2.8 fold and 1.7 fold; Fold of Basal RLU [28]: 0.9 and 1.3 and 0.8; Fold of Basal RLU [29]: 1.1 fold and 1 fold; Fold of Basal RLU [30]: 0.4 and 0.6 and 0.5 and 0.3; Fold of Basal RLU [31]: 1 fold and 0.7 fold and 0.9 fold and 1.1 fold; Fold of Basal RLU [32]: 1.9 fold and 1.8 fold and 1.7 fold and 1.6 fold; Fold of Basal RLU [33]: 0.7 fold and 0.8 fold; Fold of Basal RLU [34]: 1.1 fold and 1.4 fold and 1.2 fold; Fold of Basal RLU [35]: 0.9 and 0.6 and 1.1; Fold of Basal RLU [36]: 1.5 and 1.4 and 1.3 and 1; Fold of Basal RLU [37]: 1.2 fold and 1.1 fold and 1 fold
